ChEMBL document CHEMBL5042488, “Synthesis, biological, and structural explorations of a series of μ-opioid receptor (MOR) agonists with high G protein signaling bias” (Eur J Med Chem, 2022)
Calls of active or inactive are those of the source.

What was measured:
[1] = Plasma protein binding in human plasma assessed as unbound fraction; type: ADME, cell-free
[2] = Plasma protein binding in rat plasma assessed as unbound fraction; type: ADME, cell-free
[3] = Metabolic stability in human liver microsomes assessed as intrinsic clearance preincubated for 10 mins followed by NADPH addition and measured after 60 mins by LC-MS/MS analysis; type: ADME, Microsome; conditions: time 70 min, read-out: CLH
[4] = Metabolic stability in dog liver microsomes assessed as intrinsic clearance preincubated for 10 mins followed by NADPH addition and measured after 60 mins by LC-MS/MS analysis; type: ADME, Canis lupus familiaris, Microsome; conditions: time 70 min, read-out: CLH
Mu-type opioid receptor [5] = target: T1, Mu-type opioid receptor (Homo sapiens, UniProt P35372); assay: Agonist activity at mu opioid receptor (unknown origin) assessed as maximal cAMP level incubated for 40 mins by spectrophotometry relative to DAMGO; type: functional; conditions: filed as agonist
Mu-type opioid receptor [6] = target: T1, Mu-type opioid receptor; assay: Agonist activity at mu opioid receptor (unknown origin) assessed as increase in cAMP level incubated for 40 mins by spectrophotometry; type: functional
[7] = Apparent permeability across apical to basal membrane in human Caco-2 cells; type: ADME, cell-based
[8] = Plasma protein binding in dog plasma assessed as unbound fraction; type: ADME, cell-free, Canis lupus familiaris
[9] = Metabolic stability in rat liver microsomes assessed as intrinsic clearance preincubated for 10 mins followed by NADPH addition and measured after 60 mins by LC-MS/MS analysis; type: ADME, Microsome; conditions: time 70 min, read-out: CLH
Mu-type opioid receptor [10] = target: T1, Mu-type opioid receptor; assay: Agonist activity at mu opioid receptor (unknown origin) assessed as beta arrestin-2 recruitment incubated for 3 days by PathHunter assay; type: functional
Rattus norvegicus [11] = assay: Antinociceptive activity in Sprague-Dawley rat assessed as increase in paw withdrawal latency at 1 mg/kg, sc measured after 30 mins by Hot-plate test; type: functional, organism-based
[12] = Cmax in Sprague-Dawley rat at 2 mg/kg, iv by LC-MS/MS analysis; type: ADME, organism-based; design: route intravenous, dose 2 mg/kg; conditions: in vivo
Cytochrome P450 2C9 = Cytochrome P450 2C9 (Homo sapiens, UniProt P11712); assay: Inhibition of CYP2C9 (unknown origin); type: ADME
[13] = Toxicity in Sprague-Dawley rat assessed as effect on blood oxygen levels at 1.56 mg/kg, sc measured after 30 mins by blood gas analyzer; type: organism-based; conditions: in vivo, 0.5 h
Cytochrome P450 2C19 = Cytochrome P450 2C19 (Homo sapiens, UniProt P33261); assay: Inhibition of CYP2C19 (unknown origin); type: ADME
[14] = target: Kappa-type opioid receptor (Homo sapiens, UniProt P41145); assay: Agonist activity at human kappa opioid receptor expressed in HEK293 assessed as increase in calcium mobilization incubated for 60 mins by FLIPR assay; type: functional, cell-based
[15] = Drug concentration in Sprague-Dawley rat brain at […], iv measured after 5 mins by LC-MS/MS analysis; type: ADME, organism-based; conditions: dose 0.25 mg/kg, read-out: Drug uptake
[16] = Half life of compound; type: physicochemical
Mu-type opioid receptor [17] = target: T1, Mu-type opioid receptor; assay: Agonist activity at mu opioid receptor (unknown origin) assessed as maximal beta arrestin-2 recruitment incubated for 3 days by PathHunter assay relative to DAMGO; type: functional; conditions: time 3.0 day
[18] = Apparent volume of distribution in Sprague-Dawley rat at 2 mg/kg, iv by LC-MS/MS analysis; type: ADME, organism-based; conditions: in vivo, read-out: Vz
[19] = Half life in Sprague-Dawley rat at 2 mg/kg, iv by LC-MS/MS analysis; type: ADME, organism-based; conditions: in vivo
Rattus norvegicus [20] = assay: Antinociceptive activity in sc dosed Sprague-Dawley rat assessed as increase in thermal pain threshold measured after 30 mins by Hot-plate test; type: functional; conditions: 0.5 h
[21] = MRT in Sprague-Dawley rat at 2 mg/kg, iv by LC-MS/MS analysis; type: ADME, organism-based; conditions: in vivo
[22] = target: Delta-type opioid receptor (Homo sapiens, UniProt P41143); assay: Agonist activity at human delta opioid receptor expressed in HEK293 assessed as increase in calcium mobilization incubated for 60 mins by FLIPR assay; type: functional, cell-based
[23] = Drug concentration in Sprague-Dawley rat liver at […],iv measured after 30 mins by LC-MS/MS analysis; type: ADME, organism-based; conditions: in vivo, 0.5 h, dose 0.25 mg/kg

T1 sequence (P35372 whole entry): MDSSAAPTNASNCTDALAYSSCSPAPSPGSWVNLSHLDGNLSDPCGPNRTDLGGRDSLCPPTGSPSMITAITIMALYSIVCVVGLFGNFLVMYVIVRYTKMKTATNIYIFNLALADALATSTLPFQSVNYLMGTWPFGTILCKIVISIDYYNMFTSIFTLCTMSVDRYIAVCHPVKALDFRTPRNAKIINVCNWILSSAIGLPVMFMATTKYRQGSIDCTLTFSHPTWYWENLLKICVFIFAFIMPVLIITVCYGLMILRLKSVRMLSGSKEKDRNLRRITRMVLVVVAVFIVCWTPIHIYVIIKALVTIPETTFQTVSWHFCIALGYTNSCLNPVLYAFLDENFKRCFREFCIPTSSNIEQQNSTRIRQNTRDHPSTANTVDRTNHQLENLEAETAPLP
Cytochrome P450 2C19, sequence (P33261 whole entry): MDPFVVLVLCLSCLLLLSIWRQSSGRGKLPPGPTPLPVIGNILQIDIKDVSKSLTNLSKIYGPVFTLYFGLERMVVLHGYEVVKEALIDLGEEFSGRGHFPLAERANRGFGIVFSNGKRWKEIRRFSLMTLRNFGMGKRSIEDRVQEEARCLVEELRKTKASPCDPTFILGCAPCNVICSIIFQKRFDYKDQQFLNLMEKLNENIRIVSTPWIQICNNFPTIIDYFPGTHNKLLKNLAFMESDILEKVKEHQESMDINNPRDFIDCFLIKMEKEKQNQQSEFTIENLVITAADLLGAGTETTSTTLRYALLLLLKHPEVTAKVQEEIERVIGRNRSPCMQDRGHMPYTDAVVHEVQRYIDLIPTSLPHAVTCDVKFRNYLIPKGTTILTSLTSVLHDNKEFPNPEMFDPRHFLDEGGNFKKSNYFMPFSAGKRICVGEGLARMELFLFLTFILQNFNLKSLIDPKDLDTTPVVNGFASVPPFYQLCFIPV
Cytochrome P450 2C9, sequence (P11712 whole entry): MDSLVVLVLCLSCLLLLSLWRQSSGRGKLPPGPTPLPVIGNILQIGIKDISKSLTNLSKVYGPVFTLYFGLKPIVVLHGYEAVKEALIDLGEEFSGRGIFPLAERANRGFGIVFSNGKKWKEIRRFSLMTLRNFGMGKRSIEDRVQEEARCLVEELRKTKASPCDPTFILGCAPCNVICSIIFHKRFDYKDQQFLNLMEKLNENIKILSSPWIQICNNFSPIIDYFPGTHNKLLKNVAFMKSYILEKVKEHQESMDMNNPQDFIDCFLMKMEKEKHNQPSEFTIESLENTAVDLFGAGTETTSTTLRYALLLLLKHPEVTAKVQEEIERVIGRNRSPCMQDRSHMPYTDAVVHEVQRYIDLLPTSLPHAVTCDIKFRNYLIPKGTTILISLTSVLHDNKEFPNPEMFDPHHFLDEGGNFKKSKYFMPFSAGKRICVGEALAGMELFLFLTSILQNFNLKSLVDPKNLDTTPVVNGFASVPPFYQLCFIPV
Delta-type opioid receptor, sequence (P41143 whole entry): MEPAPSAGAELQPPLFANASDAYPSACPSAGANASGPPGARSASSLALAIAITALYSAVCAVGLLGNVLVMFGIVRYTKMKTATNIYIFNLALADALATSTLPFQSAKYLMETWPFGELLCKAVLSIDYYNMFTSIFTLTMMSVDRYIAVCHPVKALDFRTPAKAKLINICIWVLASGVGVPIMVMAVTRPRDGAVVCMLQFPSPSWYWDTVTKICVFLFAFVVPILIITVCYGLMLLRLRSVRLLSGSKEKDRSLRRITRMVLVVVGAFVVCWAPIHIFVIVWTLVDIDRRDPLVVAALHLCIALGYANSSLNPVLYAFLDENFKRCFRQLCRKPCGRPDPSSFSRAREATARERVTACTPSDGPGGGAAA
Kappa-type opioid receptor, sequence (P41145 whole entry): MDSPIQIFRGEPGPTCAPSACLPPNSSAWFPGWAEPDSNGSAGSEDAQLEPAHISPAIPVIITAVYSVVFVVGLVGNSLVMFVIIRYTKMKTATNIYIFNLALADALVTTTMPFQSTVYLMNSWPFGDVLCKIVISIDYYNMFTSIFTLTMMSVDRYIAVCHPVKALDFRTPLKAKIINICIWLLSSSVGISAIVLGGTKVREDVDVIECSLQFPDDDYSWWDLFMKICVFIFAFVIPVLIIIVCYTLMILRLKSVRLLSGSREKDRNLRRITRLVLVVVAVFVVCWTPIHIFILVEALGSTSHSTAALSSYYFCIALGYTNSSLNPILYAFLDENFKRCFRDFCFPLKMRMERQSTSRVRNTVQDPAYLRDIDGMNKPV

SMILES | CLint scaled [3] [mL/min/kg] | Emax (Mu-type opioid receptor [5]) [%] | EC50 (Mu-type opioid receptor [6]) [nM] | EC50 (Mu-type opioid receptor [10]) [nM] | Emax (Mu-type opioid receptor [17]) [%] | further results
c1ccc([C@]2(CCNCc3scc4c3CCC4)CCO[C@]3(CCOC3)C2)nc1 | 49 | 96.9 | 0.46 |  |  | fraction unbound [1]: 0.54; fraction unbound [2]: 0.58; CLint scaled [4]: 203 mL/min/kg; Papp A→B [7]: 2.4 ×10⁻⁶ cm/s; fraction unbound [8]: 0.16; CLint scaled [9]: 651 mL/min/kg
c1ccc([C@]2(CCNCc3scc4c3COC4)CCOC3(CCOC3)C2)nc1 (some centres undefined) |  | 90.4 | 14.1 | > 30000 |  | 
Clc1cccc(CNCC[C@@]2(c3ccccn3)CCOC3(CCOC3)C2)c1 (some centres undefined) | 22.1 | 86.4 | 2.6 | > 30000 |  | 
Fc1ccc([C@]2(CCNCc3scc4c3CCC4)CCO[C@]3(CCOC3)C2)nc1 | 108 | 95.1 |  |  |  | 
Fc1ccc([C@]2(CCNCc3cncc(Cl)c3)CCOC3(CCOC3)C2)cc1 (some centres undefined) |  | 90.8 | 12.8 | > 30000 |  | 
Fc1ccc([C@]2(CCNCc3scc4c3CCC4)CCOC3(CCOC3)C2)cc1 (some centres undefined) | 157 |  | 0.07 | > 30000 |  | 
Fc1ccc(CNCC[C@@]2(c3ccccn3)CCOC3(CCOC3)C2)cc1Cl (some centres undefined) |  | 92.3 | 26.5 | > 30000 |  | 
c1ccc([C@]2(CCNCC3CCCCC3)CCOC3(CCOC3)C2)nc1 (some centres undefined) |  | 59.2 | 61.6 | > 30000 |  | 
Fc1ccc([C@]2(CCNCc3scc4c3CCCC4)CCO[C@]3(CCOC3)C2)nc1 | 338 | 99.5 | 0.2 | > 30000 |  | 
COc1ccsc1CNCC[C@@]1(c2ccccn2)CCOC2(CCCC2)C1 [OLICERIDINE] |  | 92.5 |  |  | 4.6 | Activity (Rattus norvegicus [11]): Active; fraction unbound [1]: 0.22; Cmax [12]: 249 ng/mL; IC50 (Cytochrome P450 2C9): > 50000 nM; fraction unbound [2]: 0.36; Activity [13]: 87.62%; IC50 (Cytochrome P450 2C19): > 50000 nM; EC50 [14]: > 10000 nM; concentration at 5 min [15]: 64.8 ng/g; half-life [16]: 6.51 min; Vd [18]: 6.39 L/kg; half-life [19]: 72.6 min; CLint scaled [4]: 465 mL/min/kg; Papp A→B [7]: 4.4 ×10⁻⁶ cm/s; ED50 (Rattus norvegicus [20]): 0.85 mg/kg; fraction unbound [8]: 0.023; CLint scaled [9]: 1110 mL/min/kg; MRT [21]: 49.2 min; EC50 [22]: > 10000 nM; Drug uptake [23]: 23.8%
Clc1ccc(CNCC[C@@]2(c3ccccn3)CCOC3(CCOC3)C2)s1 (some centres undefined) |  | 93.3 | 22.3 | > 30000 | 2.3 | 
c1ccc([C@]2(CCNCc3scc4c3COC4)CCOC3(CCCC3)C2)nc1 | 230 | 90.5 | 2 | 27 | 4.4 | 
Cc1cc(C)cc(CNCC[C@@]2(c3ccccn3)CCOC3(CCOC3)C2)c1 (some centres undefined) |  | 96.6 | 11.6 | > 30000 | 4.6 | 
